Assay [1] has as its target T1, Wild Type ALK kinase (Homo sapiens, UniProt Q9UM73).
T1 construct: purchased Sino-US Crown Bioscience, Inc. batch number ALK 20110607
Put plainly: HTRF KinEASE-TK assay, inhibitory activity on wild type ALK kinase. It is filed as biochemical. As to conditions: wild type ALK 1 ng/μl, substrate 1 μM, 30° C. 35 minutes, read-out: Inhibition on ALK kinases (wildtype), IC50. The procedure, abridged: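 ALK kinase at 1 ng/μl and substrate at 1 μM were reacted with compound (1% DMSO) in buffer with 5 mM MgCl2 and 1 mM DTT for 35 min at 30 °C. HTRF detection used the 665/615 ratio, normalised to no-compound wells and to 10.4 μM LDK-378 wells. IC50 came from a concentration-response fit.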
(In general: Time-resolved FRET reads energy transfer from a long-lived donor to a nearby acceptor.)

Assay [2] relates to Karpas-299 cell line. Put plainly: CellTiter-Glo cell proliferation inhibition on Karpas-299 cell line. The following applies: Homo sapiens, 96 h, Karpas-299 cells, 5000 cells/well, 4 days drug treatment. It is filed as cell-based. The procedure, abridged: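 CellTiter-Glo luminescence measured after 4-day compound exposure (0.5% DMSO final) of Karpas-299 cells seeded at 5000/well in RPMI-1640 with 10% FBS, 37 °C, 5% CO2. IC50 derived from percent inhibition relative to vehicle wells.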

Molecules are shown by their SMILES.

Results on 34 compounds are retold here after patent US10023593B2, “ALK kinase inhibitor, and preparation method and uses thereof” (BEIJING PEARL BIOTECHNOLOGY LIMITED LIABILITY COMPANY, priority 2014, dated 2018).

T1 sequence (Q9UM73 19-1620): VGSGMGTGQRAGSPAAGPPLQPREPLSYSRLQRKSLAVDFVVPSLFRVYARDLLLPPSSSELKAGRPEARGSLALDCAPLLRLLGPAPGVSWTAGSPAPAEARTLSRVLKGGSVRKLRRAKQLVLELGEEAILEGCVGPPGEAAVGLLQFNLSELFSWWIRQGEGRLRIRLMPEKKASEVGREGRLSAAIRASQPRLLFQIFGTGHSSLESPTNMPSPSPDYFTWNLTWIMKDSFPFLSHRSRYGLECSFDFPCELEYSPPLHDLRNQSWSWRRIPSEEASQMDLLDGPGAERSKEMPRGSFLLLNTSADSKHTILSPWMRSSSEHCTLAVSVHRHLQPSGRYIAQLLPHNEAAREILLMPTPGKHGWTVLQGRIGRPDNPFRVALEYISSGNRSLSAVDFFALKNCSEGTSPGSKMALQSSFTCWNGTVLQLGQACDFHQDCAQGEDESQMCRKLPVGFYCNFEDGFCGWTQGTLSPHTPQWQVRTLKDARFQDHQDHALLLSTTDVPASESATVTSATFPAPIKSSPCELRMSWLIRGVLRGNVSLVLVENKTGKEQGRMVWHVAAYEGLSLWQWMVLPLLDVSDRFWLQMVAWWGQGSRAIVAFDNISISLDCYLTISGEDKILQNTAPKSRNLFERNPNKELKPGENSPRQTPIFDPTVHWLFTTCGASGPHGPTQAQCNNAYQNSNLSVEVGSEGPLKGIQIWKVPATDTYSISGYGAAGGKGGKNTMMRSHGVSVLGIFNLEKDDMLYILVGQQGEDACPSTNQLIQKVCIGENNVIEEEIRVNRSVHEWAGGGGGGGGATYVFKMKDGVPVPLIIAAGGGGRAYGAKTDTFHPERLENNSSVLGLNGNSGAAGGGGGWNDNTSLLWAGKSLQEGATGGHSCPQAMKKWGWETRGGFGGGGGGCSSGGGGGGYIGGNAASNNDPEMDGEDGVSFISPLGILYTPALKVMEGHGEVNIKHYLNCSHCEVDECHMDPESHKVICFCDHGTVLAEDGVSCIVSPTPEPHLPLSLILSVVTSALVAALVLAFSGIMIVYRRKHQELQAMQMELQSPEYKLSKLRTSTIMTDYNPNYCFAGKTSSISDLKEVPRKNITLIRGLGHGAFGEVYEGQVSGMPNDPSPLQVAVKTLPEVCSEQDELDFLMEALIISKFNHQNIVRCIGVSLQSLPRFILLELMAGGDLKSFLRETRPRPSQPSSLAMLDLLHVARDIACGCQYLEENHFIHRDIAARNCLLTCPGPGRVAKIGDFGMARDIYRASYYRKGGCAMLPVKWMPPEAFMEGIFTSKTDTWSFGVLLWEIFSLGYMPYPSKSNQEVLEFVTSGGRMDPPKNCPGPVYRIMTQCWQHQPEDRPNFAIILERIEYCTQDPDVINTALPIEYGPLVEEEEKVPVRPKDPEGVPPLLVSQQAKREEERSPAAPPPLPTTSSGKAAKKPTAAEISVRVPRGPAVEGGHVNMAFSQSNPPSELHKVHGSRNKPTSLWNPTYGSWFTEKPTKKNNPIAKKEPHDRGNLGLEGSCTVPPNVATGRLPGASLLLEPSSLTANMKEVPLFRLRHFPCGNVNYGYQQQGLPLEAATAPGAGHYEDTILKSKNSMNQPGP

For `Cc1cc(Nc2ncc(Cl)c(Nc3cn(C)nc3S(=O)(=O)C(C)C)n2)c(OCC2CC2)cc1C1CCN(C)CC1` [Final product 39], the concentration for half-maximal inhibition (IC50) – broadly, the point on the concentration scale where inhibition reaches its midpoint – in assay [1] amounted to 15 nM; in assay [2] it was 74 nM.

As for `CC(C)S(=O)(=O)c1nn(C)cc1Nc1nc(Nc2ccc(C3CCN(C)CC3)cc2OC2CC2)ncc1Cl` [Final product 40], the IC50 in assay [1] worked out at 3 nM; in assay [2] it was 7 nM.

As for `CC(C)S(=O)(=O)c1nn(C)cc1Nc1nc(Nc2ccc(C3CCN(C)C3)cc2OC2CC2)ncc1Cl` (centres unmarked) [Final product 41], the figures for the IC50 in assay [1] and in assay [2] were 1 nM and 4 nM, respectively.

In the case of `CC(C)S(=O)(=O)c1nn(C2CC2)cc1Nc1nc(Nc2ccc(C3CCN(C)CC3)cc2OC2CC2)ncc1Cl` [Final product 42], the figures for the IC50 in assay [1] and in assay [2] were 1 nM and 3 nM, respectively.

Turning to `CC(C)CS(=O)(=O)c1nn(C)cc1Nc1nc(Nc2ccc(C3CCN(C)CC3)cc2OC2CC2)ncc1Cl` [Final product 43], the IC50 was 5 nM in assay [1] and 26 nM in assay [2].

Turning to `CC(C)S(=O)(=O)c1nn(C)cc1Nc1nc(Nc2cc(F)c(C3CCN(C)C3)cc2OC2CC2)ncc1Cl` (centres unmarked) [Final product 45], the IC50 in assay [1] amounted to 4 nM; in assay [2], 19 nM.

Consider `CC(C)S(=O)(=O)c1nn(C)cc1Nc1nc(Nc2cc(Cl)c(C3CCN(C)CC3)cc2OC2CC2)ncc1Cl` [Final product 47], for which the IC50 worked out at 4 nM in assay [1] and 15 nM in assay [2].

Turning to `CC(C)S(=O)(=O)c1nn(C2CC2)cc1Nc1nc(Nc2cc(Cl)c(C3CCN(C)CC3)cc2OC2CC2)ncc1Cl` [Final product 48], the half-inhibitory concentration (IC50) in assay [1] amounted to 2 nM; in assay [2], 41 nM.

In the case of `CC(C)S(=O)(=O)c1nn(C)cc1Nc1nc(Nc2cc(C#N)c(C3CCN(C)CC3)cc2OC2CC2)ncc1Cl` [Final product 49], the IC50 in assay [1] came to 8 nM; in assay [2] it was 100 nM.

As to `Cc1cc(Nc2ncc(Cl)c(Nc3cn(C)nc3S(=O)(=O)C(C)C)n2)c(OC2CC2)cc1C1=CCN(C)CC1` [Final product 50], the IC50 in assay [1] turned out to be 5 nM; in assay [2], 11 nM.

`Cc1cc(Nc2ncc(Cl)c(Nc3cn(C)nc3S(=O)(=O)C(C)C)n2)c(OC2CC2)cc1C1CC(C)N(C)C(C)C1` (centres unmarked) [Final product 95]: the values for the IC50 in assay [1] and in assay [2] were 2 nM and 4 nM, respectively.

Turning to `Cc1cc(Nc2ncc(Cl)c(Nc3cn(C)nc3S(=O)(=O)C(C)C)n2)c(OC2CC2)cc1C1CCOCC1` [Final product 107], the IC50 was 9 nM in assay [1] and 18 nM in assay [2].

For the compound `Cc1cc(Nc2ncc(Cl)c(Nc3cn(C)nc3S(=O)(=O)C(C)C)n2)c(OC2CC2)cc1OC1CCN(C)CC1` [Final product 111], the half-maximal inhibitory concentration (IC50) in assay [1] was determined as 3 nM; in assay [2], 16 nM.

As to `CCN1CCC(c2cc(OC(C)C)c(Nc3ncc(Cl)c(Nc4cn(C)nc4S(=O)(=O)C(C)C)n3)cc2C)CC1` [Final product 118], the half-inhibitory concentration (IC50) in assay [1] was 5 nM; in assay [2] it was 9 nM.

Consider `Cc1cc(Nc2ncc(Cl)c(Nc3cn(C)nc3S(=O)(=O)C(C)C)n2)c(OC(C)C)cc1C1CCN(C(C)C)CC1` [Final product 126], for which the half-inhibitory concentration (IC50) in assay [1] worked out at 7 nM; in assay [2], 12 nM.

For `Cc1cc(Nc2ncc(Cl)c(Nc3cn(C)nc3S(=O)(=O)CC(C)C)n2)c(OC2CC2)cc1C1CCN(C(C)C)CC1` [Final product 127], the IC50 in assay [1] came to 5 nM; in assay [2], 30 nM.

As to `Cc1cc(Nc2ncc(Cl)c(Nc3cn(C)nc3S(=O)(=O)C(C)C)n2)c(OC2CC2)cc1C1CCN(CCO)CC1` [Final product 133, 2-(4-(4-(5-chloro-4-(3-(isopropylsulfonyl)-1-methyl-1H-pyrazol-4-amino)pyrimidin-2-amino)-5-cyclopropoxy-2-methylphenyl)piperidin-1-yl) ethanol], the IC50 in assay [1] was 2 nM; in assay [2] it was 4 nM.

With `CCOc1cc(C2CCN(CCO)CC2)c(C)cc1Nc1ncc(Cl)c(Nc2cn(C)nc2S(=O)(=O)C(C)C)n1` [Final product 135], the IC50 in assay [1] and in assay [2] was 3 nM each time.

`Cc1cc(Nc2ncc(Cl)c(Nc3cn(C)nc3S(=O)(=O)CC(C)C)n2)c(OC2CC2)cc1C1CCN(CCO)CC1` [Final product 137]: the IC50 in assay [1] amounted to 4 nM; in assay [2], 12 nM.

In the case of `Cc1cc(Nc2ncc(Cl)c(Nc3cn(C)nc3S(=O)(=O)C(C)C)n2)c(OC2CCC2)cc1C1CCN(CCO)CC1` [Final product 138], the IC50 in assay [1] was determined as 4 nM; in assay [2] it was 6 nM.

For `Cc1cc(Nc2ncc(Cl)c(Nc3cn(C)nc3S(=O)(=O)C(C)C)n2)c(OC2CC2)cc1C1CCN(CCN(C)C)CC1` [Final product 146, 5-chloro-N^2-(2-cyclopropoxy-4-(1-(2-(dimethylamino)ethyl)piperidin-4-yl)-5-methylphenyl)-N^4-(3-(isopropylsulfonyl)-1-methyl-1H-pyrazol-4-yl)-pyrimidin-2,4-diamine], the half-inhibitory concentration (IC50) is 2 nM in assay [1] and 15 nM in assay [2].

As to `Cc1cc(Nc2ncc(Cl)c(Nc3cn(C)nc3S(=O)(=O)C(C)C)n2)c(OC(C)C)cc1C1CCN(C(C)(C)CO)CC1` [Final product 152], the IC50 worked out at 4 nM in assay [1] and 7 nM in assay [2].

As to `Cc1cc(Nc2ncc(Cl)c(Nc3cn(C)nc3S(=O)(=O)C(C)C)n2)c(OC2CC2)cc1C1CCN(C2COC2)CC1` [Final product 156], the IC50 in assay [1] worked out at 10 nM; in assay [2], 19 nM.

In the case of `Cc1cc(Nc2ncc(Cl)c(Nc3cn(C)nc3S(=O)(=O)C(C)C)n2)c(OC2CC2)cc1C1CCN(C2CC2)CC1` [Final product 157], the IC50 stood at 7 nM in assay [1] and 13 nM in assay [2].

As for `Cc1cc(Nc2ncc(Cl)c(Nc3cn(C)nc3S(=O)(=O)C(C)C)n2)c(OC2CC2)cc1C1CCN(C=O)CC1` [Final product 159, 4-(4-(5-chloro-4-(3-(isopropylsulfonyl)-1-methyl-1H-pyrazol-4-amino)pyrimidin-2-amino)-5-cyclopropoxy-2-methylphenyl)piperidin-1-formaldehyde], the IC50 in assay [1] worked out at 9 nM; in assay [2] it was 11 nM.

For the compound `CC(=O)N1CCC(c2cc(OC3CC3)c(Nc3ncc(Cl)c(Nc4cn(C)nc4S(=O)(=O)C(C)C)n3)cc2C)CC1` [Final product 160, 1-acetyl-4-(4-(5-chloro-4-(3-(isopropylsulfonyl)-1-methyl-1H-pyrazol-4-amino)pyrimidin-2-amine)-5-cyclopropoxy-2-methylphenyl)piperidine], the IC50 was 7 nM in assay [1] and 14 nM in assay [2].

Regarding `Cc1cc(Nc2ncc(Cl)c(Nc3cn(C)nc3S(=O)(=O)C(C)C)n2)c(OC2CC2)cc1C1CCN(C(=O)C(F)(F)F)CC1` [Final product 161, 1-trifluoroacetyl-4-(4-(5-chloro-4-(3-(isopropylsulfonyl)-1-methyl-1H-pyrazol-4-amino)pyrimidin-2-amine)-5-cyclopropoxy-2-methylphenyl)piperidine], the values for the IC50 in assay [1] and in assay [2] were 32 nM and 27 nM, respectively.

Take `Cc1cc(Nc2ncc(Cl)c(Nc3cn(C)nc3S(=O)(=O)C(C)C)n2)c(OC2CC2)cc1C1CCN(C(=O)C2CC2)CC1` [Final product 162, 1-cyclopropylformyl-4-(4-(5-chloro-4-(3-(isopropylsulfonyl)-1-methyl-1H-pyrazol-4-amino)pyrimidin-2-amine)-5-cyclopropoxy-2-methylphenyl)piperidine]: the IC50 was determined as 19 nM in assay [1] and 24 nM in assay [2].

With `Cc1cc(Nc2ncc(Cl)c(Nc3cn(C)nc3S(=O)(=O)C(C)C)n2)c(OC2CC2)cc1C1CCN(C(=O)C(C)(C)C)CC1` [Final product 164, 1-pivaloyl-4-(4-(5-chloro-4-(3-(isopropylsulfonyl)-1-methyl-1H-pyrazol-4-amino)pyrimidin-2-amine)-5-cyclopropoxy-2-methylphenyl)piperidine], the results for the half-maximal inhibitory concentration (IC50) in assay [1] and in assay [2] were 56 nM and 15 nM, respectively.

For `Cc1cc(Nc2ncc(Cl)c(Nc3cn(C)nc3S(=O)(=O)C(C)C)n2)c(OC2CC2)cc1C1CCN(C(=O)CN(C)C)CC1` [Final product 165, 1-(2-dimethylamino)acetyl-4-(4-(5-chloro-4-(3-(isopropylsulfonyl)-1-methyl-1H-pyrazol-4-amino)pyrimidin-2-amino)-5-cyclopropoxy-2-methylphenyl)piperidine], the IC50 in assay [1] was determined as 2 nM; in assay [2], 3 nM.

On to `Cc1cc(Nc2ncc(Cl)c(Nc3cn(C)nc3S(=O)(=O)C(C)C)n2)c(OC2CC2)cc1C1CCN(C(=O)CC#N)CC1` [Final product 166, 1-cyano acetyl-4-(4-(5-chloro-4-(3-(isopropylsulfonyl)-1-methyl-1H-pyrazol-4-amino)pyrimidin-2-amine)-5-cyclopropoxy-2-methylphenyl)piperidine], for which the IC50 is 3 nM in assay [1] and 8 nM in assay [2].

Turning to `Cc1cc(Nc2ncc(Cl)c(Nc3cn(C)nc3S(=O)(=O)C(C)C)n2)c(OC2CC2)cc1C1CCN(S(C)(=O)=O)CC1` [Final product 167, 5-chloro-N^2-(2-cyclopropoxy-5-methyl-4-(1-methanesulfonyl-piperidin-4-yl)-phenyl)-N^4-(3-(isopropylsulfonyl)-1-methyl-1H-pyrazol-4-yl)pyrimidin-2,4-diamine], the IC50 in assay [1] came to 9 nM; in assay [2], 18 nM.

On to `Cc1cc(Nc2ncc(Cl)c(Nc3cn(C)nc3S(=O)(=O)C(C)C)n2)c(OC(C)C)cc1C1CN(S(C)(=O)=O)C1` [Final product 168], for which the IC50 amounted to 14 nM in assay [1] and 68 nM in assay [2].

With `Cc1cc(Nc2ncc(Cl)c(Nc3cn(C)nc3S(=O)(=O)C(C)C)n2)c(OC2CC2)cc1C1CN(S(C)(=O)=O)C1` [Final product 170], the IC50 in assay [1] was determined as 40 nM; in assay [2] it was 86 nM.
